From the RepoRT retention time repository

Assay: RP, Waters Atlantis T3, 50 × 4.6 mm, 5 µm, 40 °C, 0.8 mL/min, estimated dead time 0.66 min; A: water + 0.05% trifluoroacetic acid; B: acetonitrile + 0.1% formic acid, pH 3; gradient (min/%B) 0/10 1/10 7/95 12/95 12.5/10 14/10
Details: stereoisomer not certain

| SMILES | LC retention time |
| --- | --- |
| CNC(=O)CC1NC(=O)c2csc(n2)-c2ccc(-c3nc(C4=NC(C(=O)N5CCCC5C(N)=O)CO4)cs3)nc2-c2csc(n2)-c2csc(n2)C(C(O)c2ccccc2)NC(=O)CNC(=O)c2nc(sc2COC)C(C(C)C)NC(=O)c2nc1sc2C (stereo not given) [GE2270A] | 6.62 min |
| CC(=O)OC1CC2(C)C(CC(O)C3C4(C)CCC(O)C(C)C4CCC32C)C1=C(CCC=C(C)C)C(=O)O (stereo not given) [Fusidinic acid] | 8.3 min |
| COC1C(OC(N)=O)C(O)C(Oc2ccc3c(O)c(NC(=O)c4ccc(O)c(CC=C(C)C)c4)c(=O)oc3c2C)OC1(C)C (stereo not given) [Novobiocin] | 7.62 min |
| CC1C(NC(=O)C(=NOC(C)(C)C(=O)O)c2csc(N)n2)C(=O)N1S(=O)(=O)O (stereo not given) [Aztreonam] | 2.91 min |
| CC=CC=CC1OC(O)(C(CC)C(=O)NCC=CC=C(C)C(OC)C(C)C2OC(C=CC=CC=C(C)C(=O)c3c(O)cc[nH]c3=O)C(O)C2O)C(O)C(O)C1(C)C (stereo not given) [Kirromycin] | 6.52 min |
| CCC(C)CCCC(=O)NC(CCN)C(=O)NC(C(=O)NC(CCN)C(=O)NC1CCNC(=O)C(C(C)O)NC(=O)C(CCN)NC(=O)C(CCN)NC(=O)C(CC(C)C)NC(=O)C(CC(C)C)NC(=O)C(CCN)NC1=O)C(C)O (stereo not given) [Colistin] | 4.44 min |
| CCCCCCCCCC(=O)NC(Cc1c[nH]c2ccccc12)C(=O)NC(CC(N)=O)C(=O)NC(CC(=O)O)C(=O)NC1C(=O)NCC(=O)NC(CCCN)C(=O)NC(CC(=O)O)C(=O)NC(C)C(=O)NC(CC(=O)O)C(=O)NCC(=O)NC(CO)C(=O)NC(C(C)CC(=O)O)C(=O)NC(CC(=O)c2ccccc2N)C(=O)OC1C (stereo not given) [Daptomycin] | 5.79 min |
| CC1(C)SC2C(NC(=O)Cc3ccccc3)C(=O)N2C1C(=O)O (stereo not given) [Penicillin G] | 5.75 min |
| CNC(CC(C)C)C(=O)NC1C(=O)NC(CC(N)=O)C(=O)NC2C(=O)NC3C(=O)NC(C(=O)NC(C(=O)O)c4cc(O)cc(O)c4-c4cc3ccc4O)C(O)c3ccc(c(Cl)c3)Oc3cc2cc(c3OC2OC(CO)C(O)C(O)C2OC2CC(C)(N)C(O)C(C)O2)Oc2ccc(cc2Cl)C1O (stereo not given) [Vancomycin] | 3.55 min |
| COc1cccc2c1C(=O)c1c(O)c3c(c(O)c1C2=O)CC(O)(C(C)=O)CC3OC1CC(N)C(O)C(C)O1 (stereo not given) [Daunomycin] | 5.44 min |
| CC(=O)NC1C(OC2c3ccc(c(Cl)c3)Oc3cc4cc(c3O)Oc3ccc(cc3Cl)CC3NC(=O)C(N)c5ccc(O)c(c5)Oc5cc(O)cc(c5)C(NC3=O)C(=O)NC4C(=O)NC3C(=O)NC2C(=O)NC(C(=O)O)c2cc(O)cc(OC4OC(CO)C(O)C(O)C4O)c2-c2cc3ccc2O)OC(CO)C(O)C1O (stereo not given) [Teicoplanin A3-1] | 4.02 min |
| CCCC=CC=CC(=O)NC(CC(N)=O)C(=O)NC(CC(N)=O)C(=O)NC(C(=O)NC(CCCN)C(=O)NC(C(=O)NC(C(=O)NC(C(=O)NC(C(=O)NC(Cc1ccccc1)C(=O)NC(CCCN)C(=O)NC(C(=O)NC(C(=O)NC(C(=O)NCC(=O)NC(CC(C)C)C(=O)NC(C)C(=O)NC(C(=O)O)C1CCC(O)C(Cl)C1)C1CCC(O)CC1)C(C)O)C1CCC(O)CC1)C(C)O)C1CCC(O)CC1)C1CCC(O)CC1)C(C)O)C1CCC(O)CC1 (stereo not given) [Ramoplanin A] | 5.22 min |
| CCC1OC(=O)C(C)C(OC2CC(C)(OC)C(O)C(C)O2)C(C)C(OC2OC(C)CC(N(C)C)C2O)C(C)(OC)CC(C)C(=O)C(C)C(O)C1(C)O (stereo not given) [Clarithromycin] | 5.91 min |
| COc1cc(Cc2cnc(N)nc2N)cc(OC)c1OC [Trimethoprim] | 4.06 min |
| CCC(C(=O)O)C1CCC(C)C(C(C)C(O)C(C)C(=O)C(CC)C2OC3(C=CC(O)C4(CCC(C)(C5CCC(O)(CC)C(C)O5)O4)O3)C(C)CC2C)O1 (stereo not given) [Salinomycin] | 11.2 min |
| COC1C=COC2(C)Oc3c(C)c(O)c4c(O)c(c(C=NN5CCN(C)CC5)c(O)c4c3C2=O)NC(=O)C(C)=CC=CC(C)C(O)C(C)C(O)C(C)C(OC(C)=O)C1C (stereo not given) [Rifampicin] | 6.17 min |
| C=C(NC(=O)c1csc(-c2nc3c(cc2O)-c2nc(cs2)C(=O)NC(C(C)O)C(=O)NC(=CC)c2nc(cs2)C(=O)NC2CC(O)C(=O)OCc4cccc5[nH]c(c(C)c45)C(=O)SCC(NC(=O)c4csc2n4)c2nc-3cs2)n1)C(N)=O (stereo not given) [Nosiheptide] | 6.77 min |
| CCCC1CC(C(=O)NC(C(C)Cl)C2OC(SC)C(O)C(O)C2O)N(C)C1 (stereo not given) [Clindamycin] | 4.83 min |
| C=C(NC(=O)C(=C)NC(=O)c1csc(C2=NC3c4csc(n4)C4NC(=O)c5csc(n5)C(C(C)(O)C(C)O)NC(=O)C5CSC(=N5)C(=CC)NC(=O)C(C(C)O)NC(=O)c5csc(n5)C3(CC2)NC(=O)C(C)NC(=O)C(=C)NC(=O)C(C)NC(=O)C(C(C)CC)NC2C=Cc3c(C(C)O)cc(nc3C2O)C(=O)OC4C)n1)C(N)=O (stereo not given) [Thiostrepton] | 6.65 min |
| CC1(C)SC2C(NC(=O)C(N)c3ccccc3)C(=O)N2C1C(=O)O (stereo not given) [Ampicillin] | 4.09 min |
